Activity calls are given as the source filed them. How the calls were made is not given here.
What was measured:
Streptococcus mutans [1] = test: Inhibition of planktonic growth of Streptococcus mutans ATCC 25175 up to 96 ug/mL after 24 hrs relative to control; type: organism-based
Fusobacterium nucleatum = test: Antibiofilm activity against Fusobacterium nucleatum ATCC 25586 assessed as inhibition of biofilm formation up to 96 ug/mL after 24 hrs by crystal violet staining based assay; type: functional, organism-based
Streptococcus mutans [2] = test: Antibiofilm activity against Streptococcus mutans ATCC 25175 assessed as inhibition of biofilm formation up to 96 ug/mL after 24 hrs by crystal violet staining-based assay; type: functional, organism-based
Porphyromonas gingivalis = test: Antibiofilm activity against Porphyromonas gingivalis ATCC 33277 assessed as inhibition of biofilm formation up to 96 ug/mL after 24 hrs by crystal violet staining based assay; type: functional, organism-based

SMILES: CC(C)C[C@@H]1NC(=O)[C@H](C)NC1=O
- growth inhibition (GI) (Streptococcus mutans [1]): Non-Toxic
- inhibition (Fusobacterium nucleatum): inactive
- inhibition (Streptococcus mutans [2]): inactive
- inhibition (Porphyromonas gingivalis): inactive

SMILES: O=C1N[C@@H](Cc2ccc([N+](=O)[O-])cc2)C(=O)N[C@H]1Cc1ccc([N+](=O)[O-])cc1
- growth inhibition (GI) (Streptococcus mutans [1]): Non-Toxic
- inhibition (Fusobacterium nucleatum): inactive
- inhibition (Streptococcus mutans [2]): inactive
- inhibition (Porphyromonas gingivalis): inactive

SMILES: O=C1N[C@@H](Cc2ccc(OCc3ccccc3)cc2)C(=O)N2CCC[C@@H]12
- growth inhibition (GI) (Streptococcus mutans [1]): Non-Toxic
- inhibition (Fusobacterium nucleatum): inactive
- inhibition (Streptococcus mutans [2]): inactive
- inhibition (Porphyromonas gingivalis): inactive

SMILES: O=C(NCCCC[C@@H]1NC(=O)[C@H](Cc2ccccc2)NC1=O)OCc1ccccc1
- growth inhibition (GI) (Streptococcus mutans [1]): Non-Toxic
- inhibition (Fusobacterium nucleatum): inactive
- inhibition (Streptococcus mutans [2]): inactive
- inhibition (Porphyromonas gingivalis): inactive

SMILES: CC(C)[C@@H]1NC(=O)[C@H](Cc2ccc(OCc3ccccc3)cc2)NC1=O
- growth inhibition (GI) (Streptococcus mutans [1]): Non-Toxic
- inhibition (Fusobacterium nucleatum): inactive
- inhibition (Streptococcus mutans [2]): inactive
- inhibition (Porphyromonas gingivalis): inactive

SMILES: NCCCC[C@@H]1NC(=O)[C@H](Cc2ccccc2)NC1=O
- growth inhibition (GI) (Streptococcus mutans [1]): Non-Toxic
- inhibition (Fusobacterium nucleatum): inactive
- inhibition (Streptococcus mutans [2]): inactive
- inhibition (Porphyromonas gingivalis): inactive

SMILES: O=C1CNC(=O)[C@H](Cc2ccccc2)N1
- growth inhibition (GI) (Streptococcus mutans [1]): Non-Toxic
- inhibition (Fusobacterium nucleatum): inactive
- inhibition (Streptococcus mutans [2]): inactive
- inhibition (Porphyromonas gingivalis): inactive

SMILES: O=C1[C@H]2CCCN2C(=O)[C@H]2CCCN12
- growth inhibition (GI) (Streptococcus mutans [1]): Non-Toxic
- inhibition (Fusobacterium nucleatum): inactive
- inhibition (Streptococcus mutans [2]): inactive
- inhibition (Porphyromonas gingivalis): inactive

SMILES: CC(C)[C@@H]1NC(=O)[C@H](C(C)C)NC1=O
- growth inhibition (GI) (Streptococcus mutans [1]): Non-Toxic
- inhibition (Fusobacterium nucleatum): inactive
- inhibition (Streptococcus mutans [2]): inactive
- inhibition (Porphyromonas gingivalis): inactive

SMILES: O=C1[C@@H]2CCCN2C(=O)[C@@H]2CCCN12
- growth inhibition (GI) (Streptococcus mutans [1]): Non-Toxic
- inhibition (Fusobacterium nucleatum): inactive
- inhibition (Streptococcus mutans [2]): inactive
- inhibition (Porphyromonas gingivalis): inactive

SMILES: CC(C)[C@@H]1NC(=O)[C@H](Cc2ccccc2)NC1=O
- growth inhibition (GI) (Streptococcus mutans [1]): Non-Toxic
- inhibition (Fusobacterium nucleatum): inactive
- inhibition (Streptococcus mutans [2]): inactive
- inhibition (Porphyromonas gingivalis): inactive

SMILES: CCC(C)[C@@H]1NC(=O)[C@H](Cc2ccccc2)NC1=O (some centres not stated)
- growth inhibition (GI) (Streptococcus mutans [1]): Non-Toxic
- inhibition (Fusobacterium nucleatum): inactive
- inhibition (Streptococcus mutans [2]): inactive
- inhibition (Porphyromonas gingivalis): inactive

SMILES: O=C1N[C@H](COCc2ccccc2)C(=O)N[C@@H]1COCc1ccccc1
- growth inhibition (GI) (Streptococcus mutans [1]): Non-Toxic
- inhibition (Fusobacterium nucleatum): inactive
- inhibition (Streptococcus mutans [2]): inactive
- inhibition (Porphyromonas gingivalis): inactive

SMILES: CC(C)C[C@@H]1NC(=O)[C@H](CC(C)C)NC1=O
- growth inhibition (GI) (Streptococcus mutans [1]): Non-Toxic
- inhibition (Fusobacterium nucleatum): inactive
- inhibition (Streptococcus mutans [2]): inactive
- inhibition (Porphyromonas gingivalis): inactive

SMILES: CC(C)C[C@@H]1NC(=O)[C@@H](C(C)C)NC1=O
- growth inhibition (GI) (Streptococcus mutans [1]): Non-Toxic
- inhibition (Fusobacterium nucleatum): inactive
- inhibition (Streptococcus mutans [2]): inactive
- inhibition (Porphyromonas gingivalis): inactive

SMILES: C[C@@H]1NC(=O)[C@H](C)NC1=O
- growth inhibition (GI) (Streptococcus mutans [1]): Non-Toxic
- inhibition (Fusobacterium nucleatum): inactive
- inhibition (Streptococcus mutans [2]): inactive
- inhibition (Porphyromonas gingivalis): inactive

SMILES: CC(C)C[C@H]1NC(=O)[C@H](Cc2ccccc2)NC1=O
- growth inhibition (GI) (Streptococcus mutans [1]): Non-Toxic
- inhibition (Fusobacterium nucleatum): inactive
- inhibition (Streptococcus mutans [2]): inactive
- inhibition (Porphyromonas gingivalis): inactive

SMILES: CC(C)C[C@H]1NC(=O)[C@@H](C(C)C)NC1=O
- growth inhibition (GI) (Streptococcus mutans [1]): Non-Toxic
- inhibition (Fusobacterium nucleatum): inactive
- inhibition (Streptococcus mutans [2]): inactive
- inhibition (Porphyromonas gingivalis): inactive

SMILES: CCC(C)[C@@H]1NC(=O)[C@H](COCc2ccccc2)NC1=O (some centres not stated)
- growth inhibition (GI) (Streptococcus mutans [1]): Non-Toxic
- inhibition (Fusobacterium nucleatum): inactive
- inhibition (Streptococcus mutans [2]): inactive
- inhibition (Porphyromonas gingivalis): inactive

SMILES: O=C1N[C@@H](Cc2ccccc2)C(=O)N[C@H]1COCc1ccccc1
- growth inhibition (GI) (Streptococcus mutans [1]): Non-Toxic
- inhibition (Fusobacterium nucleatum): inactive
- inhibition (Streptococcus mutans [2]): inactive
- inhibition (Porphyromonas gingivalis): inactive

SMILES: C[C@H]1NC(=O)[C@@H](Cc2ccc(OCc3ccccc3)cc2)NC1=O
- growth inhibition (GI) (Streptococcus mutans [1]): Non-Toxic
- inhibition (Fusobacterium nucleatum): inactive
- inhibition (Streptococcus mutans [2]): inactive
- inhibition (Porphyromonas gingivalis): inactive

SMILES: O=C(NCCCC[C@@H]1NC(=O)[C@H](CCCCNC(=O)OCc2ccccc2)NC1=O)OCc1ccccc1
- growth inhibition (GI) (Streptococcus mutans [1]): Non-Toxic
- inhibition (Fusobacterium nucleatum): inactive
- inhibition (Streptococcus mutans [2]): inactive
- inhibition (Porphyromonas gingivalis): inactive

SMILES: C[C@@H]1NC(=O)[C@H](Cc2ccc(OCc3ccccc3)cc2)NC1=O
- growth inhibition (GI) (Streptococcus mutans [1]): Non-Toxic
- inhibition (Fusobacterium nucleatum): inactive
- inhibition (Streptococcus mutans [2]): inactive
- inhibition (Porphyromonas gingivalis): inactive

SMILES: O=C1N[C@@H](COCc2ccccc2)C(=O)N[C@H]1COCc1ccccc1
- growth inhibition (GI) (Streptococcus mutans [1]): Non-Toxic
- inhibition (Fusobacterium nucleatum): inactive
- inhibition (Streptococcus mutans [2]): inactive
- inhibition (Porphyromonas gingivalis): inactive

SMILES: CCC(C)[C@@H]1NC(=O)[C@H](C(C)CC)NC1=O (some centres not stated)
- growth inhibition (GI) (Streptococcus mutans [1]): Non-Toxic
- inhibition (Fusobacterium nucleatum): inactive
- inhibition (Streptococcus mutans [2]): inactive
- inhibition (Porphyromonas gingivalis): inactive

SMILES: CC(C)C[C@H]1NC(=O)[C@@H](Cc2ccccc2)NC1=O
- growth inhibition (GI) (Streptococcus mutans [1]): Non-Toxic
- inhibition (Fusobacterium nucleatum): inactive
- inhibition (Streptococcus mutans [2]): inactive
- inhibition (Porphyromonas gingivalis): inactive

SMILES: O=C1N[C@H](Cc2ccccc2)C(=O)N[C@H]1COCc1ccccc1
- growth inhibition (GI) (Streptococcus mutans [1]): Non-Toxic
- inhibition (Fusobacterium nucleatum): inactive
- inhibition (Streptococcus mutans [2]): inactive
- inhibition (Porphyromonas gingivalis): inactive

SMILES: O=C1CNC(=O)[C@H](CCC(=O)OCc2ccccc2)N1
- growth inhibition (GI) (Streptococcus mutans [1]): Non-Toxic
- inhibition (Fusobacterium nucleatum): inactive
- inhibition (Streptococcus mutans [2]): inactive
- inhibition (Porphyromonas gingivalis): inactive

SMILES: CC(C)C[C@@H]1NC(=O)[C@@H](CC(C)C)NC1=O
- growth inhibition (GI) (Streptococcus mutans [1]): Non-Toxic
- inhibition (Fusobacterium nucleatum): inactive
- inhibition (Streptococcus mutans [2]): inactive
- inhibition (Porphyromonas gingivalis): inactive

SMILES: CC(C)[C@H]1NC(=O)[C@@H](C(C)C)NC1=O
- growth inhibition (GI) (Streptococcus mutans [1]): Non-Toxic
- inhibition (Fusobacterium nucleatum): inactive
- inhibition (Streptococcus mutans [2]): inactive
- inhibition (Porphyromonas gingivalis): inactive

SMILES: O=C1N[C@H](Cc2ccccc2)C(=O)N[C@@H]1COCc1ccccc1
- growth inhibition (GI) (Streptococcus mutans [1]): Non-Toxic
- inhibition (Fusobacterium nucleatum): inactive
- inhibition (Streptococcus mutans [2]): inactive
- inhibition (Porphyromonas gingivalis): inactive

SMILES: CC(C)C[C@H]1NC(=O)[C@H](C(C)C)NC1=O
- growth inhibition (GI) (Streptococcus mutans [1]): Non-Toxic
- inhibition (Fusobacterium nucleatum): inactive
- inhibition (Streptococcus mutans [2]): inactive
- inhibition (Porphyromonas gingivalis): inactive

SMILES: C[C@@H](OCc1ccccc1)[C@@H]1NC(=O)[C@H]([C@@H](C)OCc2ccccc2)NC1=O
- growth inhibition (GI) (Streptococcus mutans [1]): Non-Toxic
- inhibition (Fusobacterium nucleatum): inactive
- inhibition (Streptococcus mutans [2]): inactive
- inhibition (Porphyromonas gingivalis): inactive

SMILES: CC(C)C[C@@H]1NC(=O)[C@H](CCCN(C(=N)N)[N+](=O)[O-])NC1=O
- growth inhibition (GI) (Streptococcus mutans [1]): Non-Toxic
- inhibition (Fusobacterium nucleatum): inactive
- inhibition (Streptococcus mutans [2]): inactive
- inhibition (Porphyromonas gingivalis): inactive

SMILES: C[C@@H]1NC(=O)[C@H](CCC(N)=O)NC1=O
- growth inhibition (GI) (Streptococcus mutans [1]): Non-Toxic
- inhibition (Fusobacterium nucleatum): inactive
- inhibition (Streptococcus mutans [2]): inactive
- inhibition (Porphyromonas gingivalis): inactive

SMILES: CC(C)C[C@@H]1NC(=O)[C@@H](Cc2ccc(OCc3ccccc3)cc2)NC1=O
- growth inhibition (GI) (Streptococcus mutans [1]): Non-Toxic
- inhibition (Fusobacterium nucleatum): inactive
- inhibition (Streptococcus mutans [2]): inactive
- inhibition (Porphyromonas gingivalis): inactive

SMILES: CC(C)C[C@@H]1NC(=O)[C@H](C(C)C)NC1=O
- growth inhibition (GI) (Streptococcus mutans [1]): Non-Toxic
- inhibition (Fusobacterium nucleatum): inactive
- inhibition (Streptococcus mutans [2]): inactive
- inhibition (Porphyromonas gingivalis): inactive

SMILES: CC(C)C[C@@H]1NC(=O)[C@H](COCc2ccccc2)NC1=O
- growth inhibition (GI) (Streptococcus mutans [1]): Non-Toxic
- inhibition (Fusobacterium nucleatum): inactive
- inhibition (Streptococcus mutans [2]): inactive
- inhibition (Porphyromonas gingivalis): inactive

SMILES: CC(C)C[C@H]1NC(=O)[C@@H](Cc2ccc(OCc3ccccc3)cc2)NC1=O
- growth inhibition (GI) (Streptococcus mutans [1]): Non-Toxic
- inhibition (Fusobacterium nucleatum): inactive
- inhibition (Streptococcus mutans [2]): inactive
- inhibition (Porphyromonas gingivalis): inactive

SMILES: CC(C)[C@@H]1NC(=O)[C@H](COCc2ccccc2)NC1=O
- growth inhibition (GI) (Streptococcus mutans [1]): Non-Toxic
- inhibition (Fusobacterium nucleatum): inactive
- inhibition (Streptococcus mutans [2]): inactive
- inhibition (Porphyromonas gingivalis): inactive

SMILES: CC(C)[C@@H]1NC(=O)[C@H](C)NC1=O
- growth inhibition (GI) (Streptococcus mutans [1]): Non-Toxic
- inhibition (Fusobacterium nucleatum): inactive
- inhibition (Streptococcus mutans [2]): inactive
- inhibition (Porphyromonas gingivalis): inactive

SMILES: CC(C)C[C@@H]1NC(=O)[C@H](Cc2ccc([N+](=O)[O-])cc2)NC1=O
- growth inhibition (GI) (Streptococcus mutans [1]): Non-Toxic
- inhibition (Fusobacterium nucleatum): inactive
- inhibition (Streptococcus mutans [2]): inactive
- inhibition (Porphyromonas gingivalis): inactive

SMILES: C[C@H]1NC(=O)[C@@H](Cc2ccccc2)NC1=O
- growth inhibition (GI) (Streptococcus mutans [1]): Non-Toxic
- inhibition (Fusobacterium nucleatum): inactive
- inhibition (Streptococcus mutans [2]): inactive
- inhibition (Porphyromonas gingivalis): inactive

SMILES: C[C@@H]1NC(=O)[C@H](Cc2ccccc2)NC1=O
- growth inhibition (GI) (Streptococcus mutans [1]): Non-Toxic
- inhibition (Fusobacterium nucleatum): inactive
- inhibition (Streptococcus mutans [2]): inactive
- inhibition (Porphyromonas gingivalis): inactive

SMILES: CC(C)C[C@@H]1NC(=O)[C@H](Cc2ccc(OCc3ccccc3)cc2)NC1=O
- growth inhibition (GI) (Streptococcus mutans [1]): Non-Toxic
- inhibition (Fusobacterium nucleatum): inactive
- inhibition (Streptococcus mutans [2]): inactive
- inhibition (Porphyromonas gingivalis): inactive

SMILES: CC(C)C[C@@H]1NC(=O)CNC1=O
- growth inhibition (GI) (Streptococcus mutans [1]): Non-Toxic
- inhibition (Fusobacterium nucleatum): inactive
- inhibition (Streptococcus mutans [2]): inactive
- inhibition (Porphyromonas gingivalis): inactive

SMILES: O=C1N[C@H](COCc2ccccc2)C(=O)N[C@H]1COCc1ccccc1
- growth inhibition (GI) (Streptococcus mutans [1]): Non-Toxic
- inhibition (Fusobacterium nucleatum): inactive
- inhibition (Streptococcus mutans [2]): inactive
- inhibition (Porphyromonas gingivalis): inactive

SMILES: N=C(N)NCCC[C@@H]1NC(=O)[C@H](Cc2ccc(O)cc2)NC1=O
- growth inhibition (GI) (Streptococcus mutans [1]): Non-Toxic
- inhibition (Fusobacterium nucleatum): inactive
- inhibition (Streptococcus mutans [2]): inactive
- inhibition (Porphyromonas gingivalis): inactive
